Drawing on patent US10669268B2, “Bicyclic derivatives” (Hoffmann-La Roche Inc., priority 2012, dated 2020), this text covers IC50 for 43 molecules.

The target in this assay is ATX (human His-tagged) (Homo sapiens (Human), UniProt Q13822). Kind of assay: Human ATX enzyme inhibition assay (fluorescence quenching, MR121 substrate). Format: biochemical. To be noted: 30 nM ATX, 1 μM MR121 substrate, 30° C., pH 8.0. In outline: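 Tris-HCl buffer at pH 8.0 contained 140 mM NaCl, 5 mM KCl, 1 mM each CaCl2 and MgCl2, and 0.01% Triton X-100. The MR121 substrate (1 μM final) was incubated with enzyme for 15 min at 30 °C, and activity was read by fluorescence quenching.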
Broadly, the IC50 is the point on the concentration scale where inhibition reaches its midpoint. Low values mean inhibition by little substance, high ones a need for much substance. In turn, `O=C(/C=C/c1ccc(OC(F)F)cc1)N1C[C@@H]2CN(C(=O)c3ccc4[nH]nnc4c3)C[C@H]2C1` [Example 15.36, (E)-1-((3aR,6aR)-5-(1H-benzo[d][1,2,3]triazole-5-carbonyl)hexahydro-pyrrolo[3,4-c]pyrrol-2(1H)-yl)-3-(4-(difluoromethoxy)phenyl)-prop-2-en-1-one] returned an IC50 of 3 nM.

With `O=C(/C=C/c1ccc(OC(F)(F)F)cc1)N1CC[C@H]2CN(C(=O)c3ccc4[nH]nnc4c3)C[C@H]2C1` [Example 15.37], the IC50 came out at 93 nM.

Take `N#Cc1cccc(/C=C/C(=O)N2CC[C@@H]3CN(C(=O)c4ccc5[nH]nnc5c4)C[C@@H]3CC2)c1` [Example 15.38]: half-maximal inhibition (IC50) required 50 nM.

Take `O=C(/C=C/c1ccc(OC(F)(F)F)cc1F)N1CC[C@@H]2CN(C(=O)c3ccc4[nH]nnc4c3)C[C@@H]2CC1` [Example 15.39]: inhibition was half-maximal at 5 nM (IC50).

The molecule `O=C(/C=C/c1ccc(OC(F)(F)F)cc1F)N1C[C@@H]2CN(C(=O)c3ccc4[nH]nnc4c3)C[C@H]2C1` [Example 15.40, (E)-1-((3aR,6aR)-5-(1H-benzo[d][1,2,3]triazole-5-carbonyl)hexahydro-pyrrolo[3,4-c]pyrrol-2(1H)-yl)-3-(2-fluoro-4-(trifluoromethoxy)phenyl)-prop-2-en-1-one] gave a half-inhibitory concentration (IC50) of 5 nM.

`O=C(/C=C/c1ccc(Cl)cc1F)N1C[C@@H]2CN(C(=O)c3ccc4[nH]nnc4c3)C[C@H]2C1` [Example 15.41] displayed a 50% inhibitory concentration (IC50) of 17 nM.

The molecule `O=C(/C=C/c1cc(Cl)cc(Cl)c1)N1C[C@@H]2CN(C(=O)c3ccc4[nH]nnc4c3)C[C@H]2C1` [Example 15.42] yielded an IC50 of 6 nM.

Molecule `O=C(/C=C/c1ccc(OC(F)(F)F)cc1)N1C[C@@H]2CN(C(=O)C3CCc4[nH]nnc4C3)C[C@@H]2C1` (stereo partly shown) [Example 15.43] had an IC50 of 130 nM.

`O=C(CCc1ccc(OC(F)(F)F)cc1)N1C[C@@H]2CN(C(=O)c3ccc4[nH]nnc4c3)C[C@H]2C1` [Example 15.44]: the IC50 came to 6 nM.

Molecule `CS(=O)(=O)c1cc(Cl)cc(/C=C/C(=O)N2C[C@@H]3CN(C(=O)c4ccc5[nH]nnc5c4)C[C@H]3C2)c1` [Example 15.46] yielded a concentration for half-maximal inhibition (IC50) of 18 nM.

For the molecule `COc1cc(/C=C/C(=O)N2C[C@@H]3CN(C(=O)c4ccc5[nH]nnc5c4)C[C@H]3C2)cc(OC)c1` [Example 15.47], half-maximal inhibition (IC50) required 96 nM.

On to `O=C(/C=C/c1cc(Cl)cc(OC(F)(F)F)c1)N1C[C@@H]2CN(C(=O)c3ccc4[nH]nnc4c3)C[C@H]2C1` [Example 15.48], for which the half-inhibitory concentration (IC50) was 6 nM.

In turn, `COc1cc(Cl)cc(/C=C/C(=O)N2C[C@@H]3CN(C(=O)c4ccc5[nH]nnc5c4)C[C@H]3C2)c1` [Example 15.49] returned a half-inhibitory concentration (IC50) of 16 nM.

`N#Cc1cc(Cl)cc(/C=C/C(=O)N2C[C@@H]3CN(C(=O)c4ccc5[nH]nnc5c4)C[C@H]3C2)c1` [Example 15.50] displayed an IC50 of 6 nM.

`COc1cc(/C=C/C(=O)N2C[C@@H]3CN(C(=O)c4ccc5[nH]nnc5c4)C[C@H]3C2)cc(OC(F)(F)F)c1` [Example 15.51, (E)-1-[(3aR,6aR)-5-(1H-benzotriazole-5-carbonyl)-hexahydro-pyrrolo[3,4-c]pyrrol-2-yl]-3-(3-methoxy-5-trifluoromethoxy-phenyl)-prop-2-ene-1-one] registered an IC50 of 6 nM.

For the molecule `O=C1N[C@@H]2CCN(C(=O)N3C[C@H]4CN(C(=O)/C=C/c5ccc(OC(F)(F)F)cc5)C[C@@H]4C3)C[C@H]2O1` [Example 15.54], the IC50 is 280 nM.

The molecule `O=C1N[C@@H]2CCN(C(=O)N3C[C@H]4CN(C(=O)CCc5ccc(OC(F)(F)F)cc5)C[C@@H]4C3)C[C@H]2O1` [Example 15.55] gave a 50% inhibitory concentration (IC50) of 478 nM.

As to `O=C(/C=C/c1ccccc1)N1C[C@@H]2CN(C(=O)c3ccc4[nH]nnc4c3)C[C@H]2C1` [Example 15.56], it took 655 nM to reach half-maximal inhibition (IC50).

`O=C(CCc1ccccc1)N1C[C@@H]2CN(C(=O)c3ccc4[nH]nnc4c3)C[C@H]2C1` [Example 15.57] displayed a half-maximal inhibitory concentration (IC50) of 494 nM.

The molecule `O=C(/C=C/c1ccc(C(F)(F)F)cc1)N1C[C@@H]2CN(C(=O)c3ccc4[nH]nnc4c3)C[C@H]2C1` [Example 15.58] yielded a 50% inhibitory concentration (IC50) of 5 nM.

`O=C(CCc1ccc(C(F)(F)F)cc1)N1C[C@@H]2CN(C(=O)c3ccc4[nH]nnc4c3)C[C@H]2C1` [Example 15.59] showed a half-inhibitory concentration (IC50) of 11 nM.

As for `CN(Cc1cnn[nH]1)C(=O)N1C[C@H]2CN(C(=O)CCc3ccc(OC(F)(F)F)cc3)C[C@H]2C1` [Example 15.60], 1040 nM corresponded to half-maximal inhibition (IC50).

The molecule `CN(Cc1cnn[nH]1)C(=O)N1C[C@H]2CCN(C(=O)/C=C/c3ccc(OC(F)(F)F)c(F)c3)CC[C@H]2C1` [Example 15.61, (3aR,8aS)-N-((1H-1,2,3-triazol-5-yl)methyl)-6-((E)-3-(3-fluoro-4-(trifluoromethoxy)phenyl)-acryloyl)-N-methyloctahydro-pyrrolo[3,4-d]azepine-2(1H)-carboxamide] registered an IC50 of 54 nM.

With `O=C(CCc1ccc(C(F)(F)F)nc1)N1C[C@@H]2CN(C(=O)c3ccc4[nH]nnc4c3)C[C@H]2C1` [Example 15.62], inhibition was half-maximal at 68 nM (IC50).

In turn, `O=C(COc1ccc(OC(F)(F)F)cc1)N1C[C@@H]2CN(C(=O)c3ccc4[nH]nnc4c3)C[C@H]2C1` [Example 15.63] returned an IC50 of 12 nM.

`Cc1cc(OCC(=O)N2C[C@@H]3CN(C(=O)c4ccc5[nH]nnc5c4)C[C@H]3C2)c(C(C)C)cc1Cl` [Example 15.64] gave a half-maximal inhibitory concentration (IC50) of 5 nM.

The molecule `O=C(CCc1ccc(-c2ccccc2)cc1)N1C[C@@H]2CN(C(=O)c3ccc4[nH]nnc4c3)C[C@H]2C1` [Example 15.65] came in with a concentration for half-maximal inhibition (IC50) of 3 nM.

As for `O=C(/C=C/c1ccc(F)cc1C(F)(F)F)N1CC[C@@H]2CN(C(=O)c3ccc4[nH]nnc4c3)C[C@@H]2CC1` [Example 15.66, (E)-1-((3aR,8aS)-2-(1H-benzo[d][1,2,3]triazole-5-carbonyl)octahydro-pyrrolo[3,4-d]azepin-6(7H)-yl)-3-(4-fluoro-2-(trifluoromethyl)phenyl)-prop-2-en-1-one], the half-inhibitory concentration (IC50) was 13 nM.

For the molecule `Cc1cc(OCC(=O)N2C[C@@H]3CN(C(=O)c4ccc5[nH]nnc5c4)C[C@@H]3C2)c(C(C)C)cc1Cl` [Example 15.67], the half-maximal inhibitory concentration (IC50) amounted to 14 nM.

Consider `CS(=O)(=O)c1ccc(/C=C/C(=O)N2CC[C@@H]3CN(C(=O)c4ccc5[nH]nnc5c4)C[C@@H]3CC2)cc1` [Example 15.68], for which the IC50 was determined as 171 nM.

`O=C(/C=C/c1ccc(SC(F)(F)F)cc1)N1CC[C@@H]2CN(C(=O)c3ccc4[nH]nnc4c3)C[C@@H]2CC1` [Example 15.69, (E)-1-((3aR,8aS)-2-(1H-benzo[d][1,2,3]triazole-5-carbonyl)octahydropyrrolo[3,4-d]azepin-6(7H)-yl)-3-(4-(trifluoromethylthio)phenyl)prop-2-en-1-one] had an IC50 of 8 nM.

In turn, `O=C(/C=C/c1ccc(OC(F)(F)F)cc1)N1CC[C@@H]2CN(C(=O)c3ccc4[nH]nnc4c3)C[C@@H]2CC1` [Example 15.70] had an IC50 of 7 nM.

With `O=C(COc1cccc(OC(F)(F)F)c1)N1C[C@@H]2CN(C(=O)c3ccc4[nH]nnc4c3)C[C@@H]2C1` [Example 15.71], the 50% inhibitory concentration (IC50) was found to be 1360 nM.

Turning to `O=C(/C=C/c1cccc(OC(F)(F)F)c1)N1CC[C@@H]2CN(C(=O)c3ccc4[nH]nnc4c3)C[C@@H]2CC1` [Example 15.72], the half-inhibitory concentration (IC50) stood at 15 nM.

Turning to `O=C(/C=C/c1cccc(OC(F)(F)F)c1)N1C[C@H]2CCN(C(=O)c3ccc4[nH]nnc4c3)C[C@@H]2C1` [Example 15.73], the concentration for half-maximal inhibition (IC50) was found to be 116 nM.

Molecule `O=C(/C=C/c1ccc(OC(F)(F)F)cc1)N1C[C@H]2CCN(C(=O)c3ccc4[nH]nnc4c3)C[C@@H]2C1` [Example 15.74] had an IC50 of 12 nM.

In turn, `O=C(/C=C/c1ccc(OC(F)(F)F)c(Cl)c1)N1C[C@H]2CCN(C(=O)c3ccc4[nH]nnc4c3)C[C@@H]2C1` [Example 15.75] returned an IC50 of 5 nM.

As for `O=C(/C=C/c1cc(Cl)cc(Cl)c1)N1C[C@H]2CCN(C(=O)c3ccc4[nH]nnc4c3)C[C@@H]2C1` [Example 15.76], the midpoint of inhibition, the IC50, lay at 13 nM.

`O=C(/C=C/c1ccc(-c2ccccc2)nc1)N1C[C@@H]2CN(C(=O)c3ccc4[nH]nnc4c3)C[C@H]2C1` [Example 15.77] registered an IC50 of 8 nM.

`O=C(/C=C/c1ccc(C(F)(F)F)cn1)N1C[C@@H]2CN(C(=O)c3ccc4[nH]nnc4c3)C[C@H]2C1` [Example 15.78, (E)-1-[(3aR,6aR)-5-(1H-benzotriazole-5-carbonyl)-hexahydro-pyrrolo[3,4-c]pyrrol-2-yl]-3-(5-trifluoromethyl-pyridin-2-yl)-prop-2-en-1-one]: the half-maximal inhibitory concentration (IC50) is 9 nM.

Regarding `O=C(/C=C/c1ccc(-c2ccncc2)cc1)N1C[C@@H]2CN(C(=O)c3ccc4[nH]nnc4c3)C[C@H]2C1` [Example 15.79, (E)-1-[(3aR,6aR)-5-(1H-benzotriazole-5-carbonyl)-hexahydro-pyrrolo[3,4-c]pyrrol-2-yl]-3-(4-pyridin-4-yl-phenyl)-prop-2-en-1-one], the IC50 stood at 135 nM.

`O=C(/C=C/c1ccc(-c2cccnc2)cc1)N1C[C@@H]2CN(C(=O)c3ccc4[nH]nnc4c3)C[C@H]2C1` [Example 15.80, (E)-1-[(3aR,6aR)-5-(1H-benzotriazole-5-carbonyl)-hexahydro-pyrrolo[3,4-c]pyrrol-2-yl]-3-(4-pyridin-3-yl-phenyl)-prop-2-en-1-one] registered an IC50 of 60 nM.

`O=C(/C=C/c1ccc(-c2ccccn2)cc1)N1C[C@@H]2CN(C(=O)c3ccc4[nH]nnc4c3)C[C@H]2C1` [Example 15.81, (E)-1-[(3aR,6aR)-5-(1H-benzotriazole-5-carbonyl)-hexahydro-pyrrolo[3,4-c]pyrrol-2-yl]-3-(4-pyridin-2-yl-phenyl)-prop-2-en-1-one] registered an IC50 of 19 nM.
